Patent US10450610B2, “Single nucleotide polymorphisms (SNP) and association with resistance to immune tolerance induction” (University of Tennessee Research Foundation, priority 2008, dated 2019)
Where “and” joins values, the source holds several entries; their conditions need not be identical. Equal values may be shown once.

Key:
DBA/1 mice = experiment: NSAID inhibition of oral tolerance induction to collagen II; arthritic joints scored; format: in vivo
Method: To determine whether tolerance induction to orally fed bovine CII in DBA/1 mice would be abrogated by orally fed NSAID, 3 groups of 20-22 DBA/1 mice were fed (by gavage) eight doses (Monday, Tuesday, Thursday, and Friday for 2 weeks) of the following: Placebo (saline) in the a.m. and Placebo (0.1 M HAc) in the p.m.; Placebo (saline) in the a.m. and 10 μg native bovine CII in the p.m.; or piroxicam (2.4 μg/gm) in the a.m. and native bovine CII (10 μg) in the p.m. After 1 week, all mice were immunized (intradermally at the base of tail) with 100 μg of bovine CII emulsified in complete Freund's adjuvant. Animals were placed in coded cages and were scored by a blinded observer twice weekly for the number of arthritic joints (joints swollen, red, and/or deformed).

[1] = test system: BALB/c mice and DBA/1 lac J mice; experiment: Effect of commonly used immunomodulatory drugs on oral tolerance induction (oral OVA or oral bovine CII); format: in vivo; details: for OT induction to CII: DBA/1 lac J mice, prednisone at 10 mg/day equivalent; for effect on tolerance induction: oral OVA in BALB/c mice and oral bovine CII in DBA/1 lac J mice
Method: Further, studies were conducted using oral OVA (1 mg/day×5 days) in BALB/c mice and oral bovine CII (10 μg×8 doses over 14 days) in DBA/1 lac J mice to test the effects of commonly used immunomodulatory drugs on immune induction ([…], hydroxychloroquine 400 mg/day, methotrexate 17.5 mg/week, leflunomide 20 mg/day after 100 mg/day×3 loading doses, sulfasalazine 2.5 gm/day, D-penicillamine 750 mg/day, IM gold, and etanercept 25 mg twice weekly).

spleen cells [2] = experiment: COX-2 inhibitor SC′236 and oral tolerance induction; spleen cell IFNγ with α1(II) CB mixture (ELISA); format: in vivo, mice; details: for oral tolerance induction to CII: DBA/1 mice, assessed by IFNγ production by spleen cells
Method: Groups of 8 mice each were gavaged on MTTHF×2 weeks in the a.m. with PBS or SC′236 (5 μg/gm in 100 μl PBS). SC′236 (Searle) is ˜2000× more inhibitory for COX-2 than for COX-1.
Four of the mice given PBS in the a.m. and 4 mice given SC′236 in the a.m. were gavaged in the p.m. with 10 μg bovine type II collagen (CII). The other 4 mice in the a.m. PBS and a.m. SC′236 group were gavaged in the p.m. with 0.1M acetic acid (HAc) the vehicle the CII was dissolved in. After these 8 day feedings, all mice were rested for 1 week and then immunized with 100 μg of CII in complete Freund's adjuvant. After 10 days, all mice were sacrificed, and spleen cells (2×10^6/ml) were isolated and set up in culture with PBS and bovine α1(II) (50 μg/ml) CB mixture. After 4 days culture, the supernatants were harvested and IFNγ levels determined by ELISA (Endogen). Since the PBS+spleen cell culture from all mice produced between 1-12 pg/ml IFNγ, only the α1(II) data are plotted. All groups were compared to Placebo control group by Student's 2 sample t test.

spleen cells [3] = experiment: IFNγ production by spleen cells of fed, CII-immunized mice cultured with α1(II) CB peptide mixture (ELISA); format: in vivo; details: fed with Placebo (alone); FIG. 8
From the text: To assess the effect of oral feeding of piroxicam to another group of mice fed Placebo or CII on spleen cell IFNγ production in a manner similar to the experiment in FIG. 7, four groups of mice (4 mice per group) were gavaged 8 days over 2 weeks with the following: Piroxicam a.m.—CII p.m.; Piroxicam a.m.—HAc p.m.; Saline a.m.—CII p.m.; or Saline a.m.—HAc p.m. After 1 week rest, all mice were immunized at the base of the tail with a CII—complete Freund's adjuvant emulsion. After 14 days, mice ere sacrificed, and spleen cells were isolated and set up in culture with PBS or α1(II)CB peptide mixture. After 72 h culture, harvested supernatants ere analyzed for IFNγ levels by ELISA.

PBMC = experiment: Oral collagen II in RA patients; IFNγ production (stimulation index) by PBMC cultured with α1(II); format: in vivo, human; details: for non-responders to oral CII: FIG. 13
Method: Immunological tolerance, defined as a ≥30% reduction in IFN-γ production by PBMC cultured with α1(II) of type II collagen, was examined in patients. Patients that were taking disease-modifying antirheumatic drugs, anti-TNF agents and/or non steroidal inflammatories were administered misoprostol 100 μg bid to reverse the non steroidal antiinflammatory inhibition of oral tolerance. Patients were randomized to receive “low” or “high” doses of CII. The Low Dose group (n=38) took daily 30 μg/day bovine CII for 10 weeks, then 50 μg/day for 10 weeks and then 70 μg/day for 10 weeks. The High Dose group (n=41) took 90 μg/day for 10 weeks, 110 μg/day for 10 weeks and then 130 μg/day for 10 weeks.
Heparinized blood was obtained at baseline and after each of the 10 week treatment periods. The blood was diluted 1:3 with RPMI 1640 containing penicillin (100 u/ml) and streptomycin (100 μg/ml) within 1-4 hours after collection, wrapped in paper, and placed in a styrofoam box containing a “cold pack” and shipped overnight. The PBMC were isolated from the blood samples and set up in culture with bovine α1(II) 25 μg/ml, PHA 10 μg/ml or with 50 ul PBS. After 6 days in culture, cell free supernatants were collected and stored at −70° for up to 7 months at which time all samples from a given patient were assayed for IFNγ by commercial ELISA (R & D Systems). The results are shown as in FIG. 13.
The IFNγ stimulation index (SI) was calculated as
[formula] The SI for patients receiving each of the low doses (30 μg, 50 μg and 70 μg/day) was compared with their SI at baseline before each of the 10 week treatments and similarly with the high dose CII group (90 μg, 110 μg and 130 μg/day) with their SI at baseline before each of the 10 week treatments.
SNP analysis was performed of 16 responders and 8 non-responders to oral CII to find the frequency of SNPs closely associated on chromosomes next to several cytokines and chemokines known to be important for oral tolerance induction. The 16 patients were those with had ≥50% reduction in IFNγ α1 stimulation index from baseline to either the 30 μg/day, 50 μg/day, 110 μg/day or 130 μg/day dose of CII (“OT Responders”). The 8 patients with increases in IFNγ α1 S.I. at the 30 μg/day, 50 μg/day, 110 μg/day or 130 μg/day doses of oral CII were selected (“OT Non-Responders”).

DBA/1 Lac mice = experiment: Low dose oral collagen II tolerance induction; arthritis after CII/CFA immunization; format: in vivo; details: 8 times over 2 weeks, FIG. 6
Method: Groups of 12 mice were fed oral CII at the doses indicated 8 times over 2 weeks […]. After 4 days rest, the mice were then immunized at the base of the tail with 100 μg CII emulsified with complete Freund's adjuvant. The degree of arthritis was assessed by a blinded observer for 8 weeks.
The percent of mice with grade 3 or 4 arthritis is indicated on the Y-axis. The biphasis response is due to induction of different tolerance mechanisms by low dose vs high dose CII. Low dose CII (10μg) induces regulatory T cells while high dose (500 μg) induces anergy or clonal deletion.

[4] = test system: mesenteric lymph node cells; experiment: Mesenteric lymph node cell proliferation with α1(II) CB peptide mixture; format: in vivo, mice; details: mice fed either CII or piroxicam alone; FIG. 12
[5] = individual RA patients, No SNP A-1515737 AA genotype
[6] = individual RA patients, SNP A-1515737 AA genotype

COc1ccc2cc(CCC(C)=O)ccc2c1 [nabumatone]
oral tolerance (OT) induction (DBA/1 mice; DBA/1 mice fed CII, FIG. 7 / similar studies (data not shown)): abrogated OT induction

C[C@]12C=CC(=O)C=C1CC[C@@H]1[C@@H]2C(=O)C[C@@]2(C)[C@H]1CC[C@]2(O)C(=O)CO [prednisone]
OT induction to CII [1]: did block OT induction to CII | effect on tolerance induction [1]: did not completely suppress tolerance

CCN(CCO)CCCC(C)Nc1ccnc2cc(Cl)ccc12 (centres unmarked) [hydroxychloroquine]
effect on tolerance induction [1]: did not completely suppress tolerance

CC(C)(S)[C@@H](N)C(=O)O [D-penicillamine]
effect on tolerance induction [1]: did not completely suppress tolerance

Cc1oncc1C(=O)Nc1ccc(C(F)(F)F)cc1 [leflunomide]
effect on tolerance induction [1]: did not completely suppress tolerance

CC(=O)OC[C@H]1O[C@@H]([S-])[C@H](OC(C)=O)[C@@H](OC(C)=O)[C@@H]1OC(C)=O.CCP(CC)CC.[Au+] [auranofin]
OT induction to CII [1]: did block OT induction to CII

NS(=O)(=O)c1ccc(-n2nc(C(F)(F)F)cc2-c2ccc(Cl)cc2)cc1 [SC′236]
oral tolerance induction to CII (spleen cells [2]; listed as SC236): blocked oral tolerance induction | oral tolerance induction to CII (spleen cells [2]; listed as SC'236): abrogates oral tolerance induction | IFNγ production by spleen cells stimulated by α1(II) CB digest (spleen cells [2]; SC′236 5 μg/gm fed alone, FIG. 9): lower IFNγ production | IFNγ production by spleen cells cultured with α1(II) CB digest (spleen cells [2]; SC′236 + CII fed, p<0.01, FIG. 9): significant increase

O=C(O)c1cc(/N=N/c2ccc(S(=O)(=O)Nc3ccccn3)cc2)ccc1O [sulfasalazine]
effect on tolerance induction [1]: did not completely suppress tolerance

CN(Cc1cnc2nc(N)nc(N)c2n1)c1ccc(C(=O)N[C@@H](CCC(=O)O)C(=O)O)cc1 [methotrexate]
effect on tolerance induction [1]: did not completely suppress tolerance

etanercept
effect on tolerance induction [1]: did not completely suppress tolerance

bovine type II collagen [CII]
percent of arthritic joints (DBA/1 mice; Placebo+CII (10 μg, eight doses) vs Placebo+Placebo fed controls, p<0.03, FIG. 7): less | IFNγ production by spleen cells cultured with α1(II) CB peptide mixture (spleen cells [3]): reduced production of IFNγ | suppression of IFNγ production (dose response) (PBMC; 30 μg, 50 μg and 110 μg/day of oral CII): maximal suppression | IFNγ SI (PBMC; 70 μg and 90 μg/day doses): did not reduce | IFNγ SI compared to baseline values (PBMC; 70 μg/day dose): significantly increased | patients with a 50% reduction in α1(II) stimulated IFNγ production (PBMC; 30, 50 and 110 μg/day oral CII): 69% | non-responders to oral CII (PBMC; 30-50 μg/day dose): 30% | non-responders to oral CII (PBMC; 110-130 μg/day dose): 28% | number of CII OT Non-Responder patients (PBMC; AA genotype): 7 | number of CII OT Responder patients (PBMC; AA genotype): 1 | number of CII OT Non-Responder patients (PBMC; Non-AA genotype): 2 | number of CII OT Responder patients (PBMC; Non-AA genotype): 15 | Ratio: After/baseline (IFNγ α1(II) SI) (PBMC; group mean, No SNP A-1515737 AA genotype): 0.427 ± 0.217 | α1(II) SI After Oral CII (PBMC; group mean, No SNP A-1515737 AA genotype (17 patients)): 175 ± 46 | Ratio: After/baseline (IFNγ α1(II) SI) (PBMC; group mean, SNP A-1515737 AA genotype): 3.512 ± 1.347 | α1(II) SI After Oral CII (PBMC; group mean, SNP A-1515737 AA genotype (7 patients)): 613 ± 256 | OT Responder (PBMC; [5]): Yes (15×) and No (2×) | Ratio: After/baseline (IFNγ α1(II) SI) (PBMC; [5]): 0.4932 and 1.9178 and 2.9064 and 0.0573 and 0.1034 and 0.4119 and 0.0789 and 0.0694 and 0.0631 and 0 and 0.0018 and 0.0176 and 0.3520 and 0.0423 and 0.2454 and 0.0030 and 0.1008 | α1(II) SI After Oral CII (PBMC; individual RA patients, No SNP A-1515737 AA genotype, 30, 50 or 110 μg/day for 10 weeks): 360 and 280 and 590 and 152 and 6 and 276 and 18 (2×) and 503 and 19 and 0 and 3 and 7 and 358 and 93 and 540 and 246 | OT Responder (PBMC; [6]): No (6×) and Yes | Ratio: After/baseline (IFNγ α1(II) SI) (PBMC; [6]): 2.3774 and 5.0500 and 2.9778 and 10.8021 and 0.0040 and 1.3688 and 2.0050 | α1(II) SI After Oral CII (PBMC; individual RA patients, SNP A-1515737 AA genotype, 30, 50 or 110 μg/day for 10 weeks): 630 and 404 and 268 and 2020 and 3 and 167 and 800 | oral tolerance to CII (reduced immune response to fed antigen) (PBMC; patients taking DMARDs, anti-TNF agents and NSAIDS, low dose misoprostol given): can be induced | IFNγ α1(II) S.I. after oral CII treatment (PBMC; patients who carried SNP A-1515737 AA, p=0.230): no significant change | IFNγ α1(II) S.I. after oral CII compared to baseline values (PBMC; patients without SNP A-1515737 AA (ROT1 AA) genotype, p<0.001): significant reduction | IFNγ SI (PBMC; ten weeks treatment with 30, 50, 110 and 130 μg/day oral CII, vs baseline): marked suppression | incidence of arthritis (percent of mice with grade 3 or 4 arthritis) (DBA/1 Lac mice; 10 μg/day oral CII): most effective in reducing the incidence of arthritis | incidence of arthritis (percent of mice with grade 3 or 4 arthritis) (DBA/1 Lac mice; 500 μg/day oral CII): also, but less, effective | proliferation in response to α1(II) CB peptide mixture [4]: did not proliferate | IFNγ production by spleen cells stimulated by α1(II) CB digest (spleen cells [2]; CII 10 μg fed, vs Placebo control, p<0.025, FIG. 9): significant reduction
